Source: patent US11358931B2, “Selective androgen receptor modulators (SARMs) and uses thereof” (priority 2007, dated 2022)
Like-named read-outs stand apart in the source and are kept apart here.

Legend:
[1] = Pharmacokinetics in Sprague Dawley rats, repeat oral administration for 15 days; format: in vivo, rat; conditions: for AUC(0-inf) / Cmax / Tmax / half-life / AUC: Sprague-Dawley, rat, plasma, po, SD rats; for AUC: read-out: AUC24
Description: The pharmacokinetics of Compound 102 following repeat oral administration for 15 days was evaluated in Sprague-Dawley rats. A total of 30 rats (15 males and 15 females) were divided into three dose groups (5 males/5 females). Compound 102 was suspended in a vehicle of 2% […]: 0.5% carboxymethyl cellulose (high viscosity) (50:50, v/v) at concentrations of 0.25, 0.75 and 2.5 mg/mL and animals were dosed via oral gavage at 1, 3 and 10 mg/kg once daily for 15 days. Tap water and a diet of rodent chow were provided to the animals ad libitum.
Blood samples were collected on Day 1 and Day 15. Approximately 0.25 mL of blood was collected from each animal via jugular cannula on Day 1 and from tail vein on Day 15. Blood samples were taken 1, 2, 4, 8, 12 and 24 hr postdose. Each blood sample was collected into tubes containing lithium heparin and kept on wet ice pending centrifugation (max 2 hrs). Samples were centrifuged under refrigeration (2°−8° C. at 3000 g) for 10 minutes. Plasma was transferred into a pre-labeled tube (approximately 125 μL) placed on dry ice and stored frozen at −70° C. until analysis.
50 μL of plasma was extracted with 250 μL of acetonitrile and the plasma concentration of Compound 102 was determined by an LC-MS/MS method. The plasma concentration time data were analyzed by a non-compartmental pharmacokinetic method using WinNonlin. The results for pharmacokinetics (Mean±SD, n=5) is shown in Table 3 (Day 1) and Table 4 (Day 15).

[2] = Metabolic stability in liver microsomes; format: in vitro ADME; conditions: rat liver microsomes, 37° C., pH 7.4, average of 2 experiments; read-out: half-life for degradation
Description: Liver microsomes are subcellular fractions that contain drug-metabolizing enzymes, such as cytochrome P450, flavin monooxygenases and UDP glucuronyl transferases. […] Rat liver microsomes are a commonly used animal model for determination of drug metabolism (e.g., see Shayeganpour et al., Drug Metab Dispos 34 (1): 43-50 (2006)).
The metabolism of Compound 102 was evaluated in rat liver microsomes. The metabolism was initiated by adding 25 μL of cofactor (100 mM of glucose 6-phosphate, 20 mM of NADP, […], and 63 mM of UDPGA) to wells containing 50 μL of 5 mg/mL of rat liver microsomes and 425 μL of 0.59 mM of Compound 102 made in 100 mM phosphate buffer (pH 7.4) at 37° C. At 0, 5, 10 and 20 minutes, a 60 μL aliquot of the sample was withdrawn. The unmetabolized test substance remaining in the sample was determined using HPLC and mass spectrometry and the half-life for degradation of the compound was calculated in minutes using curve fitting.

[3] = female, 1 mg/kg, oral gavage once daily, Day 15, 1 mg/kg, Female
[4] = female, 1 mg/kg, oral gavage, Day 1, 1 mg/kg, Female
[5] = female, 3 mg/kg, oral gavage once daily, Day 15, 3 mg/kg, Female, n = 3
[6] = female, 3 mg/kg, oral gavage, Day 1, 3 mg/kg, Female
[7] = female, 10 mg/kg, oral gavage once daily, Day 15, 10 mg/kg, Female, n = 4
[8] = female, 10 mg/kg, oral gavage, Day 1, 10 mg/kg, Female
[9] = male, 1 mg/kg, oral gavage once daily, Day 15, 1 mg/kg, Male, n = 4
[10] = male, 1 mg/kg, oral gavage, Day 1, 1 mg/kg, Male
[11] = male, 3 mg/kg, oral gavage once daily, Day 15, 3 mg/kg, Male
[12] = male, 3 mg/kg, oral gavage, Day 1, 3 mg/kg, Male
[13] = male, 10 mg/kg, oral gavage once daily, Day 15, 10 mg/kg, Male, n = 2
[14] = male, 10 mg/kg, oral gavage, Day 1, 10 mg/kg, Male

SMILES: N#Cc1ccc(N2CCC[C@@H]2[C@@H](O)C(F)(F)F)cc1C(F)(F)F [Compound 102, R,R-4-(2-(1-Hydroxyl-2,2,2-trifluoroethyl)-pyrrolidinyl)-2-trifluoromethyl-benzonitrile]
- dose dependence of systemic exposure ([1]; 1, 3 and 10 mg/kg dose levels): dose proportional increase of systemic exposure
- sex difference of systemic exposure ([1]; Day 1 and Day 15): Female rats showed higher systemic exposure than male rats
- AUC(0-inf) [1, 3]: 443 ng·h/mL
- Cmax [1, 3]: 45 ng/mL
- Tmax [1, 3]: 1.8 h
- half-life [1, 3]: 276 min
- AUC [1, 3]: 428 ng·h/mL
- AUC(0-inf) [1, 4]: 436 ng·h/mL
- Cmax [1, 4]: 41 ng/mL
- Tmax [1, 4]: 1.4 h
- half-life [1, 4]: 324 min
- AUC [1, 4]: 413 ng·h/mL
- AUC(0-inf) [1, 5]: 1160 ng·h/mL
- Cmax [1, 5]: 139 ng/mL
- Tmax [1, 5]: 1.8 h
- half-life [1, 5]: 222 min
- AUC [1, 5]: 1000 ng·h/mL
- AUC(0-inf) [1, 6]: 1260 ng·h/mL
- Cmax [1, 6]: 129 ng/mL
- Tmax [1, 6]: 2.6 h
- half-life [1, 6]: 288 min
- AUC [1, 6]: 1210 ng·h/mL
- AUC(0-inf) [1, 7]: 4540 ng·h/mL
- Cmax [1, 7]: 389 ng/mL
- Tmax [1, 7]: 2 h
- half-life [1, 7]: 324 min
- AUC [1, 7]: 4280 ng·h/mL
- AUC(0-inf) [1, 8]: 4210 ng·h/mL
- Cmax [1, 8]: 366 ng/mL
- Tmax [1, 8]: 1.4 h
- half-life [1, 8]: 336 min
- AUC [1, 8]: 3960 ng·h/mL
- AUC(0-inf) [1, 9]: 297 ng·h/mL
- Cmax [1, 9]: 52 ng/mL
- Tmax [1, 9]: 1.3 h
- half-life [1, 9]: 276 min
- AUC [1, 9]: 288 ng·h/mL
- AUC(0-inf) [1, 10]: 1110 ng·h/mL
- Cmax [1, 10]: 14 ng/mL
- Tmax [1, 10]: 1.2 h
- half-life [1, 10]: 312 min
- AUC [1, 10]: 104 ng·h/mL
- AUC(0-inf) [1, 11]: 893 ng·h/mL
- Cmax [1, 11]: 133 ng/mL
- Tmax [1, 11]: 1.2 h
- half-life [1, 11]: 246 min
- AUC [1, 11]: 876 ng·h/mL
- AUC(0-inf) [1, 12]: 341 ng·h/mL
- Cmax [1, 12]: 51 ng/mL
- Tmax [1, 12]: 1.2 h
- half-life [1, 12]: 276 min
- AUC [1, 12]: 318 ng·h/mL
- AUC(0-inf) [1, 13]: 2670 ng·h/mL
- Cmax [1, 13]: 345 ng/mL
- Tmax [1, 13]: 1.5 h
- half-life [1, 13]: 234 min
- AUC [1, 13]: 2620 ng·h/mL
- AUC(0-inf) [1, 14]: 1300 ng·h/mL
- Cmax [1, 14]: 176 ng/mL
- Tmax [1, 14]: 1.2 h
- half-life [1, 14]: 210 min
- AUC [1, 14]: 1290 ng·h/mL
- half-life at 0.5 mM [2]: 44.5 min
